In patent US7989466B2, “Methods to inhibit or augment an inflammatory response” (Cambridge Enterprise Limited, priority 1999, dated 2011):
pEC50: −log10 of the molar value. Like-named read-outs stand apart in the source and are kept apart here. Marks after values point to notes of the source that are not given here. Positions of bridges follow the written chain, without caps; N, C: chain ends. No end group written: not given here. *: point of attachment. Biotin = O=C1N[C@H]2[C@H](CS[C@H]2CCCCC(=O)*)N1

Key:
[1] = system: chemokine-induced THP-1 migration; test: THP-1 trans-well migration assay, panel of chemokines (MCP-1, MIP1α, IL-8, SDF1α); type: cell-based, human; settings: for effect on THP-1 migration induced by the chemokine panel, in words / Chemokine antagonist: MCP-1, MIP1α; for effect on THP-1 migration induced by the chemokine panel, in words: IL-8, SDF1α; for Chemokine antagonist: active against at least one of IL-8, SDF-1α; for CC SPECIFICITY: average inhibitory ED50 versus SDF1 and IL8 divided by average inhibitory ED50 versus MCP-1 and MIP1α
[2] = system: MIP1α induced THP-1 migration; test: THP-1 trans-well migration assay, MIP1α as chemoattractant; type: cell-based, human; settings: n.s. = no statistically significant inhibition (p > 0.05); read-out: ED50 versus MIP1α, inhibition of THP-1 migration
Protocol: (§1) To determine whether an agent inhibits a chemokine-induced activity, such as macrophage recruitment, varying amounts of the agent are mixed with cells in the presence of a known chemoattractant. For example, a range of known concentrations of an agent, e.g., a chemokine peptide, is incubated with a defined number (e.g., 10^4-10^6) of human THP-1 monocyte cells in individual wells of the top compartment of a trans-well plate. Chemokine (such as MCP-1, MIP1α, IL8 or SDF-1α), at a concentration known to cause significant migration of THP-1 cells in the trans-well migration assay, is placed in the lower compartment (FIG. 1). Cells are then incubated at 37° C. for a period sufficient to allow migration, e.g., 4 hours. After incubation, the cells are gently removed from the top of the filter with a pipette, 20 μl of 20 mM EDTA in simple PBS is added into each top well, and incubated for 20 minutes at 4° C. The filter is carefully flushed with media using a gentle flow, and removed. A standard curve consisting of a two-fold dilution series of THP-1 cells (in 29 μl) is prepared to accurately quantify the number of cells that have migrated. Migrated cells are stained with 3 μl of MTT stock dye solution which is added directly into each well (5 mg/ml in RPMI-1640 without phenol red, Sigma Chemical Co.) and incubated at 37° C. for 4 hours. The media is carefully aspirated from each well, and the converted dye is solubilized by 20 μl of DMSO. Absorbance of converted dye is measured at a wavelength of 595 nm using an ELISA plate reader. The number of migrated cells in each well is then determined by interpolation of the standard curve (see also Imai et al., J. Biol. Chem., 272, 15036 (1997)).
(§2) For this assay, THP-1 cells were maintained at a density of 4×10^5 cells per ml in RPMI-1640 supplemented with 10% fetal calf serum+20 μM 2-mercaptoethanol. Chemotaxis was induced in a 96-well disposable chemotaxis chamber fitted with a […] polycarbonate filter (PVP free, ChemoTX, Neuroprobe Inc., Cabin John). Twenty-nine μl of chemoattractant (recombinant human chemokine; 50 ng/ml, i.e., 5.9 nM) or control (100 ng/ml TGFβ) was added to the lower compartment of each well. The framed filter was aligned with the holes in the corner of the filter frame and placed over the wells. Five×10^4 THP-1 cells in 25 μl of RPMI-1640 were added to the upper compartment. Peptides were dissolved in Milli Q water and then serially diluted in culture medium. In most cases, the serially diluted peptides were added to the upper compartment of the chemotaxis chamber. The chamber was incubated at 37° C. in a humidified atmosphere of 5% CO2 for 4 hours.
(§3) After incubation, the cells were gently removed from the top of the filter with a pipette, 20 μl of 20 mM EDTA in PBS was added into each top well, and the mixture was incubated for 20 minutes at 4° C. The filter was then carefully flushed with media using a gentle flow, and removed. A standard curve was prepared to accurately quantify the number of THP-1 cells that had migrated. The curve was based on a two-fold dilution series of THP-1 cells (top standard 100,000 cells in 29 μl). Cells which had migrated, and in separate wells, the cells in the standards, were stained with 3 μl of MTT stock solution which was added directly into each well (5 mg/ml in RPMI 1640 without phenol red, Sigma Chemical Co.) and incubated at 37° C. for 4 hours. The media was carefully aspirated from each well, and the converted dye was solubilized by 20 μl of DMSO. Absorbance of converted dye was measured at a wavelength of 595 nm using an ELISA plate reader. The number of cells that had migrated in each well was determined by interpolation of the standard curve.

[3] = system: SDF-1α induced THP-1 migration; test: THP-1 trans-well migration assay, SDF-1α as chemoattractant; type: cell-based, human; settings: n.s. = no statistically significant inhibition (p > 0.05); read-out: ED50 versus SDF-1α, inhibition of THP-1 migration
Protocol: as §1, §2, §3

[4] = system: IL8 induced THP-1 migration; test: THP-1 trans-well migration assay, IL-8 as chemoattractant; type: cell-based, human; settings: for pEC50: n.s. = no statistically significant inhibition (p > 0.05), read-out: ED50 versus IL8, inhibition of THP-1 migration
Protocol: as §1, §2, §3

[5] = system: TGFβ1 induced THP-1 migration; test: THP-1 trans-well migration assay, TGFβ1 as non-chemokine control; type: cell-based, human; settings: n.s. = no statistically significant inhibition (p > 0.05)
Protocol: Any method suitable for counting cells can be used, for example, counting with a hemocytometer, incubation of the cells with MTT (see above), or FACS analysis. A negative control assay is also performed, using TGF-β or another non-chemokine chemoattractant (e.g., IL1β or TNFα). To assess whether the agent is cytotoxic, the same concentrations of agent are incubated with THP-1 cells. Agents which 1) are not cytotoxic at levels which inhibit migration, 2) are ineffective at inhibiting the negative control-induced migration, and 3) reduce or inhibit chemokine-induced THP-1 migration, are agents which fall within the scope of the invention.
Chemotaxis was induced in a 96-well disposable chemotaxis chamber fitted with a […] polycarbonate filter (PVP free, ChemoTX, Neuroprobe Inc., Cabin John). […] The framed filter was aligned with the holes in the corner of the filter frame and placed over the wells. […] Peptides were dissolved in Milli Q water and then serially diluted in culture medium. In most cases, the serially diluted peptides were added to the upper compartment of the chemotaxis chamber. The chamber was incubated at 37° C. in a humidified atmosphere of 5% CO2 for 4 hours.
After incubation, the cells were gently removed from the top of the filter with a pipette, 20 μl of 20 mM EDTA in PBS was added into each top well, and the mixture was incubated for 20 minutes at 4° C. The filter was then carefully flushed with media using a gentle flow, and removed. […] The curve was based on a two-fold dilution series of THP-1 cells (top standard 100,000 cells in 29 μl). […] The media was carefully aspirated from each well, and the converted dye was solubilized by 20 μl of DMSO.

[6] = system: MCP-1 induced THP-1 migration; test: THP-1 trans-well migration assay, MCP-1 as chemoattractant; type: cell-based, human
Protocol: as §1, §2, §3

[7] = system: chemokine receptors on THP-1 cells; test: Binding to chemokine receptors on THP-1 cells; set-up: species or system human
Protocol: In general, specific binding is calculated as the amount of labeled agent bound in the absence of cold competitor minus the amount of labeled agent bound in the presence of cold competitor. The amount of specific binding in the presence of varied amounts of cold competitor can be used to determine the association constant for the agent, as well as the number of binding sites on the cell for the agent, using, for example, Scatchard Analysis. The agent may be labeled by radiolabeling (e.g., iodination) or with a suitable biochemical tag (e.g., biotin) or by addition of a photoactivatable crosslinking group. Agents with an association constant lower than 100 μM (i.e., which bind more strongly than an agent with an association constant of 100 μM) and which have at least about 2,500, preferably at least about 10,000, and more preferably greater than 25,000, binding sites per cell for at least one cell type which expresses a chemokine receptor, fall under the scope of this invention. THP-1 cells have at least about 5,000 MCP-1 receptors/cell.
For example, monocytes are suspended in RPMI 1640 medium without bicarbonate containing 0.2% bovine serum albumin and 0.1% azide. Radiolabeled chemokine peptide is incubated with 1-2×10^6 cells, e.g., THP-1 cells, in the presence or absence of increasing concentrations of unlabeled chemokine (MCP-1, MCP-3, MCP-4, RANTES or MIP-1α) for 15 minutes at 37° C. in a 96-well plate in a final volume of 0.2 ml (e.g., PBS+0.5% FCS). After the incubation, 0.5 ml of ice-cold wash buffer (20 mM Tris, 0.5 M NaCl, pH 7.4) is added, and cells are collected onto a polyethyleneimine-treated Whatman GF/C filter using a Brandall cell harvester. Filters are washed with 4 ml of cold wash buffer, and the radioactivity bound to the filters is counted in a γ-counter.
For Scatchard analysis, the absorbance readings at 450 nm were calibrated, by reference to a standard curve in which known amounts of labeled peptide were coupled to derivatized sepharose beads (activated thiol-sepharose 4B; Sigma T8512) via the cysteine residue in each peptide. Briefly, known amounts (1 fmol to 1 pmol) of biotin-labeled peptide were incubated with 1 mg of activated thiol-sepharose beads in 100 μl of PBS at 37° C. for 1 hour. Free activated thiols were then blocked by addition of cysteine to a final concentration of 10 mM. The peptide-conjugated beads were then washed 5 times in PBS and treated exactly as for the cells described above. The absorbance at 450 nm obtained when a known amount of peptide was coupled to the beads was used to construct a standard curve which was used to convert the absorbance readings obtained with cells into number of molecules of labeled peptide which had bound.

[8] = agent with the cells in the upper compartment, n.s. = no statistically significant inhibition (p > 0.05), read-out: ED50 versus MCP-1, inhibition of THP-1 migration
[9] = Homo sapiens, THP-1, agent with the cells in the upper compartment, n.s. = no statistically significant inhibition (p > 0.05), read-out: ED50 versus MCP-1, inhibition of THP-1 migration
[10] = average inhibitory ED50 for inhibition of THP-1 migration induced by each of the chemokines, read-out: AVERAGE ED50

KQKWVQ [Peptide 3[7-12]]
pEC50 ([1]; THP-1 migration, read-out: ED50 range, migration by all chemokines tested): 5.05 to 5.15
pEC50 [2]: 5.30
pEC50 [3]: 5.22
pEC50 [4]: 5.22
ED50 versus TGFβ1, inhibition of THP-1 migration [5]: n.s.
pEC50 [6, 8]: 5.15

GGR [reference compound]
effect on THP-1 migration induced by the chemokine panel, in words [1]: None of these significantly inhibited migration

ELRVIESGPHCANTEI [Pep2[IL8]]
AVERAGE ED50, peptide 2 family: estimated ka for binding to THP-1 cells [7]: 1-10^e μM

CADPKQKWVQ [Peptide 3[3-12]]
pEC50 [2]: 5.15
pEC50 [3]: 5.05
pEC50 [4]: 5.05
ED50 versus TGFβ1, inhibition of THP-1 migration [5]: n.s.
pEC50 [6, 8]: 5.10

COC(=O)[C@H]1[C@H]2C[C@H]3c4[nH]c5ccccc5c4CCN3C[C@H]2CC[C@@H]1O [α-Yohimbine, reference compound]
pEC50 ([6]; read-out: ED50 versus MCP-1 induced chemotaxis of THP-1): 6.30

Cc1cc(C(C)(C)C)c(O)c(C)c1CC1=NCCN1 [Oxymetazoline, reference compound]
pEC50 [6, 9]: 4.12

KNK
Chemokine antagonist [1]: +++

RGD [reference compound]
effect on THP-1 migration induced by the chemokine panel, in words [1]: None of these significantly inhibited migration

KAK
Chemokine antagonist [1]: +

n′-CLDPKQKWIQC-c′ (Biotin-CLDPKQKWIQC; cysteine pairing not given here) [labeled peptide, N-terminal biotin conjugate]
pEC50 [6, 8]: ~5.40

CCC1(c2ccccc2)CCC(=O)NC1=O (stereo not drawn) [Glutethimide, reference compound]
pEC50 ([6]; Homo sapiens, THP-1, read-out: ED50 versus MCP-1, inhibition of THP-1 migration): 4.30

-CQVWKQKPDAC-- (disulfide 1-11; not fully specified (some residues, C-terminus); printed as -CQVWKQKPDAC--; also: CRD: cyclic reverse-D derivative, D-residues shown in italics, not given here) [CRD-Cys13pep3[3-12]]
pEC50 [1, 10]: 6.10

APG [reference compound]
effect on THP-1 migration induced by the chemokine panel, in words [1]: None of these significantly inhibited migration

KEN
CC SPECIFICITY [1]: <0.1
pEC50 ([1]; footnote f, KQK MCP-1, SEE MIP1α, KLK SDF1, KEN IL8, read-out: ED50 of a tripeptide against the one chemokine it is highly specific for): 5.00 to 7.00
percentage inhibition of migration induced by IL-8 ([4]; tripeptide at 100 μM, mean ± range, dash = no statistically significant reduction in migration): 70 ± 4%
percentage inhibition of migration induced by MCP-1 ([6]; tripeptide at 100 μM, mean ± range of two experiments, dash = no statistically significant reduction in migration): 21 ± 2^ %

TTT [reference compound]
effect on THP-1 migration induced by the chemokine panel, in words [1]: None of these significantly inhibited migration

O=C1NC(=O)C(c2ccccc2)(c2ccccc2)N1 [Phenytoin, reference compound]
pEC50 [6, 9]: 5.00

WIQ
pEC50 [1, 10]: 5.70
CC SPECIFICITY [1]: 1.0

WGQ
pEC50 [6, 8]: ~5.76

CLDPKQKWIQC [unlabeled peptide]
pEC50 [6, 8]: ~5.05

COC(=O)[C@@H]1[C@H]2C[C@H]3c4[nH]c5ccccc5c4CCN3C[C@@H]2CC[C@@H]1O [Yohimbine, reference compound]
pEC50 ([6]; Homo sapiens, THP-1, read-out: ED50 versus MCP-1 induced chemotaxis of THP-1): 7.52
